System: CD8+ and CD4+ T cells (autologous CD3+ Pan-T cells isolated from human normal PBMCs)
Test: Exogenous autologous normal donor restimulation assay (15-mer overlapping peptide pools on CD1c+ dendritic cells, TNFα/IFNγ flow cytometry)
Format: cell-based
Details: 15-mer overlapping peptide pool; for Max. Fold Change over background CD4+ TNFαINFγ double positive DP / Max. Fold Change over background CD8+ TNFαINFγ double positive DP / Max. Frequency of CD4+ TNFαINFγ DP / Max. Frequency of CD8+ TNFαINFγ DP: Table 28, additional neoantigens, highest across normal donors; for Maximum Fold Change Over Background CD4+ cells / Maximum Fold Change Over Background CD8+ cells / Maximum Frequency of TNFα/IFNγ Double Positive CD4+ T cells / Maximum Frequency of TNFα/IFNγ Double Positive CD8+ T cells: Table 25; for Maximum Fold Change Over Background CD4+ cells: TNFα+IFNγ+ CD4+ T cells; for Maximum Fold Change Over Background CD4+ cells / Maximum Fold Change Over Background CD8+ cells: highest fold change over negative control across normal donors; for Maximum Fold Change Over Background CD8+ cells: TNFα+IFNγ+ CD8+ T cells; for Maximum Frequency of TNFα/IFNγ Double Positive CD4+ T cells / Maximum Frequency of TNFα/IFNγ Double Positive CD8+ T cells: highest frequency across normal donors
Experimental: CD1c+ Dendritic Cells (DC) isolated from human normal PBMCs were thawed using media (IMDM (Gibco) supplemented with glutamine, HEPES, 5% human serum (Sigma), and 1× Pen-Strep). DC cells were resuspended in media supplemented with IL-4 (Peprotech, 80 ng/mL) and GM-CSF (Gibco, 80 ng/mL), plated in 6 well microplates, and rested overnight at 37° C. (5% CO2). The following day, DC cells were counted and plated in a 96 well round bottom microplate at a concentration of 30,000 viable cells per well. Lyophilized peptides (15-mer overlapping peptides) were solubilized in 100% DMSO and pooled by neoantigen to between 5 mg/mL and 20 mg/mL. Neoantigen peptides pools were added to DCs for a final concentration of […] and rested for 2 hours at 37° C. (5% CO2). CEF Peptide Pool “Plus” (Cellular Technologies, Ltd.) was utilized as a positive control and DMSO at the same final concentration as the experimental peptides was utilized as a negative control. After 2 hours, DC cells were irradiated with 50 gray of ionizing radiation. Autologous CD3+ Pan-T cells isolated from human normal PBMCs were thawed using media. Following irradiation, autologous Pan-T cells were added to the irradiated DCs at 300,000 viable cells per well. Human IL-15 (Peprotech) was added to all wells at final concentration of 10 ng/mL.
Plates were incubated at 37° C. (5% CO2) for a total of 12 days. Media was refreshed every 2-3 days with IL-15 (10 ng/mL final concentration) and IL-2 (R&D systems, 10 IU/mL final concentration). On day 11 cells were re-stimulated with identical experimental peptide pools or controls, at same concentration as peptide stimulation on Day 1. Protein Inhibitor Cocktail (eBioscience) was added to every well and plate was incubated overnight at 37° C. (5% CO2).
On day 12, cells were stained for intracellular flow cytometry analysis. The cells were washed with PBS and stained with Live/Dead Fixable Aqua Dead Cell stain (Thermo-Fisher). Following the live/dead stain, cells were blocked using Biotin-Free Fc Receptor Blocker (Accurate Chemical & Scientific Corp). Extracellular cellular flow panel (1 μL/antibody per well in 50 μL) consisted of CD3 PerCP-Cy5.5 (Biolegend), CD4 BV421 (Biolegend), and CD8 APC-Cy7 (Biolegend). After extracellular staining, cells were fixed using Foxp3/fTranscription Factor Staining Buffer Set (eBioscience) and stained for intracellular proteins (1:50 dilution) using TNFα FITC (R&D Systems) and IFNγ BV785 (Biolegend). Cells were washed and resuspended in stain buffer and analyzed using a BD Celesta flow cytometer.
Flow cytometry cell staining analysis was completed using FlowJo v10. Cells were gated on live, singlet, CD3+ cells. The CD8+ and CD4+ T cells were analyzed for TNFα/IFNγ expression and the frequency of double positive TNFα/IFNγ CD8+ and the frequency of double positive TNFα/IFNγ CD4+ T cells were recorded. Responses were assessed to be positive when the frequency of double positive TNFα/IFNγ CD8+ or TNFα/IFNγ CD4+ T cells due to stimulation with an experimental peptide pool was increased greater than or equal to 3-fold over the DMSO only negative control for that donor and at least 0.01%.
(§1) Overlapping 15-mer peptides were designed to span each neoantigen incorporated into NeoGAd20 and NeoMVA to assess their ability to activate T cells using the exogenous autologous normal donor restimulation assay described in Example 1 as pools using TNFα and IFNγ production by CD8^+ and CD4^+ T cells as a readout.
as §1, with “Immunogenicity of various additional identified neoantigens was assessed. Overlapping” for “Overlapping”, “similarly to what was done in Example 11” for “incorporated into NeoGAd20 and NeoMVA”

Row | Sequence | Max. Fold Change over background CD4+ TNFαINFγ double positive DP | Max. Fold Change over background CD8+ TNFαINFγ double positive DP | Max. Frequency of CD4+ TNFαINFγ DP | Max. Frequency of CD8+ TNFαINFγ DP | Maximum Fold Change Over Background CD4+ cells | Maximum Fold Change Over Background CD8+ cells | Maximum Frequency of TNFα/IFNγ Double Positive CD4+ T cells | Maximum Frequency of TNFα/IFNγ Double Positive CD8+ T cells
1 | AGAGTISEGSVLHGQRLECDARRFFGCGTTILAEWEHH (listed as Homo sapiens) [AS59, ACSL3 alternative splicing] | 59.58 | 4.22 | 0.3 | 0.08 | – | – | – | –
2 | ANLKGTLQVRSGQAVSPR (listed as Homo sapiens) [AS21, RECQL4 alternative splicing] | 1.7 | 3.81 | 0.07 | 0.12 | – | – | – | –
3 | CEERGAAGSLISCE (listed as Homo sapiens) [FUS6, TMPRSS2->ERG gene fusion] | – | – | – | – | 2.27 | 3.50 | 0.016 | 0.056
4 | CGASACDVSLIAMDSA (listed as Homo sapiens) [FUS1, SLC45A3->ELK4 gene fusion] | – | – | – | – | 8.33 | 1.94 | 0.100 | 0.031
5 | DCMLSEEGGQARRGGSLCSLAAHTIASAARGRFLSRLSNFCAVVKASRGAPSCTWE (listed as Homo sapiens) [AS40, LRRC45 alternative splicing] | 15.34 | 178.52 | 0.89 | 2.41 | – | – | – | –
6 | DGFSGSLFAVVTRRCYFLKWRTIFPQSLMWL (listed as Homo sapiens) [FUS18, OPN3->CHML gene fusion] | 31.76 | 42.33 | 0.04 | 0.91 | – | – | – | –
7 | DGHSYTSKVNCLLLQDGFHGCVSITGAAGRRNLSIFLFLMLCKLEFHA (listed as Homo sapiens) [AS55.1, SPOCK1 alternative splicing] | 20.66 | 25.26 | 0.08 | 1.47 | – | – | – | –
8 | DLRRVATYCAPLPSSWRPGTGTTIPPRMRSC (listed as Homo sapiens) [FUS23, NUDT14->JAG2 gene fusion] | 12.77 | 11.05 | 0.12 | 0.62 | – | – | – | –
9 | DYWAQKEKGSSSFLRPSC (listed as Homo sapiens) [AS7, ACSM1 alternative splicing] | – | – | – | – | 2.50 | 52.60 | 0.045 | 2.630
10 | DYWAQKEKISIPRTHLC (listed as Homo sapiens) [AS6, ACSM1 alternative splicing] | – | – | – | – | 31.67 | 6.50 | 0.380 | 0.078
11 | EAFQRAAGEGGPGRGGARRGARVLQSPFCRAGAGEWLGHQSLR (listed as Homo sapiens) [AS41, RHPN1 alternative splicing] | – | – | – | – | 2.20 | 190.60 | 0.022 | 9.530
12 | ENASLVFTGSNSPIPACELSSHPAHGISPWIPSPGNEHFHGIKKQVKAIKVE (listed as Homo sapiens) [AS48, SYT17 alternative splicing] | 13.45 | 9.21 | 0.13 | 0.29 | – | – | – | –
13 | ENSGNASRWLHVPSSSDDWLGWKKSSAITSNS (listed as Homo sapiens) [AS50, LRIF1 alternative splicing] | 17.22 | 1.6 | 0.07 | 0.12 | – | – | – | –
14 | FARKMLEKVHRQHLQLSHNSQE (listed as Homo sapiens) [AS12, EVPL alternative splicing] | 7.32 | 6.03 | 0.28 | 0.19 | – | – | – | –
15 | FKKFDGPCGERGGGRTARALWARGDSVLTPALDPQTPVRAPSLTRAAAAV (listed as Homo sapiens) [AS47, AGRN alternative splicing] | – | – | – | – | 2.58 | 4.80 | 0.031 | 0.240
16 | FMIGELVGELCCQLTFRLPFLESLCQAVVTQALRFNPSFQEVCIYQDTDLM (listed as Homo sapiens) [AS2, SLC30A4 alternative splicing] | 110.68 | 5.06 | 0.86 | 0.09 | – | – | – | –
17 | FVQGKDWGLKKFIRRDF (listed as Homo sapiens) [Neoantigen M10, SPOP F133L] | – | – | – | – | 14.14 | 1.89 | 0.1 | 0.09
18 | FVQGKDWGVKKFIRRDF (listed as Homo sapiens) [Neoantigen M12, SPOP F133V] | – | – | – | – | 8.94 | 6.67 | 0.05 | 0.12
19 | GEVELSEGGEGQRHLAFPWACSGPGWRGVCCAAVEPA (listed as Homo sapiens) [AS32, TONSL alternative splicing] | 2.04 | 3.81 | 0.08 | 0.12 | – | – | – | –
20 | GLNLNTDRPGGYSYSIWWKNNAKNR (listed as Homo sapiens) [AS17, MPHOSPH9 alternative splicing] | 3.18 | 2.38 | 0.01 | 0.07 | – | – | – | –
21 | GMECTLGQVGAPSPRREEDGWRGGHSRFKADVPAPQGPCWGGQPGSAPSSAPPEQSLLD (listed as Homo sapiens) [AS51, CPNE7 alternative splicing] | – | – | – | – | 8.75 | 33.13 | 0.140 | 0.530
22 | GNTTLQQLGEASQAPSGSLIPLRLPLLWEVRG (listed as Homo sapiens) [AS16, LRRC45 alternative splicing] | – | – | – | – | 7.78 | 24.17 | 0.140 | 0.290

From patent US12295997B2, “Prostate neoantigens and their uses” (Janssen Biotech, Inc., priority 2020, dated 2025)
